How the values were obtained:
Format in all cases: cell-based
[1] = system: Fusobacterium necrophorum; experiment: Minimum inhibitory concentration, agar dilution; details: trypticase soy agar, 2-fold serial dilutions
Streptococcus mutans = experiment: Minimum inhibitory concentration, agar dilution; details: trypticase soy agar, 2-fold serial dilutions
Actinomyces viscosus = experiment: Minimum inhibitory concentration, agar dilution; details: trypticase soy agar, 2-fold serial dilutions
Pseudomonas aeruginosa = experiment: Minimum inhibitory concentration, agar dilution; details: trypticase soy agar, 2-fold serial dilutions
Bacillus subtilis = experiment: Minimum inhibitory concentration, agar dilution; details: trypticase soy agar, 2-fold serial dilutions
Escherchia coli = experiment: Minimum inhibitory concentration, agar dilution; details: trypticase soy agar, 2-fold serial dilutions
Staphylococcus aureus = experiment: Minimum inhibitory concentration, agar dilution; details: trypticase soy agar, 2-fold serial dilutions
Pircularia oryzae = experiment: Minimum inhibitory concentration, agar dilution; details: trypticase soy agar, 2-fold serial dilutions
Description: Minimum inhibitory concentrations (MIC's) were determined respectively for the crude broth material, antibiotic A26201, antibiotic A26201-1, antibiotic A26201-2, and gardimycin against a number of different microorganisms. The following techniques were used to determine the MIC's:
Thirty ml aliquots of trypticase soy agar were respectively placed in individual tubes. The agar was melted and then cooled to about 45° to 50° C. A concentration (2-fold serial dilutions of the highest concentration tested) of test antibiotic was added to each individual tube. Each test mixture was stirred and poured into an individual petri plate so that each petri plate contained a single concentration of antibiotic. When the agar hardened, the plates were inoculated with either aerobic or anaerobic test organisms. The plates inoculated with aerobic organisms were incubated at 37° C. for 24 hours and read for bacterial growth. The same plates were again incubated at 30° C. for an additional 48 hours at which point they were checked for yeast and fungal growth. The plates inoculated with anaerobic organisms were incubated at 37° C. in an anaerobic chamber and read at 48 hours.

Bacteroides fragilis = experiment: Minimum inhibitory concentration, agar dilution; details: trypticase soy agar, 2-fold serial dilutions
Bacteroides multiacidus = experiment: Minimum inhibitory concentration, agar dilution; details: trypticase soy agar, 2-fold serial dilutions
Clostridium septicum = experiment: Minimum inhibitory concentration, agar dilution; details: trypticase soy agar, 2-fold serial dilutions
Lactobacillus casei = experiment: Minimum inhibitory concentration, agar dilution; details: trypticase soy agar, 2-fold serial dilutions
Erwinia amylovora = experiment: Minimum inhibitory concentration, agar dilution; details: trypticase soy agar, 2-fold serial dilutions
Streptococcus faecalis = experiment: Minimum inhibitory concentration, agar dilution; details: trypticase soy agar, 2-fold serial dilutions
Candida albicans = experiment: Minimum inhibitory concentration, agar dilution; details: trypticase soy agar, 2-fold serial dilutions
Aspergillus niger = experiment: Minimum inhibitory concentration, agar dilution; details: trypticase soy agar, 2-fold serial dilutions
Salmonella typhimurium = experiment: Minimum inhibitory concentration, agar dilution; details: trypticase soy agar, 2-fold serial dilutions
Streptococcus bovis = experiment: Minimum inhibitory concentration, agar dilution; details: trypticase soy agar, 2-fold serial dilutions
Clostridium perfringens = system: Clostridium perfringens
Mucor miehei = experiment: Minimum inhibitory concentration, agar dilution; details: trypticase soy agar, 2-fold serial dilutions
Sarcina lutea = experiment: Minimum inhibitory concentration, agar dilution; details: trypticase soy agar, 2-fold serial dilutions

gardimycin
MIC [1]: > 75 µg/mL
MIC (Streptococcus mutans): > 75 µg/mL
MIC (Actinomyces viscosus): 12.5 µg/mL
MIC (Pseudomonas aeruginosa): > 75 µg/mL
MIC (Bacillus subtilis): 75 µg/mL
MIC (Escherchia coli): > 75 µg/mL
MIC (Staphylococcus aureus): 75 µg/mL
MIC (Pircularia oryzae): > 75 µg/mL
MIC (Bacteroides fragilis): > 50 µg/mL
MIC (Bacteroides multiacidus): > 50 µg/mL
MIC (Clostridium septicum): 3.1 µg/mL
MIC (Lactobacillus casei): > 75 µg/mL
MIC (Erwinia amylovora): > 75 µg/mL
MIC (Streptococcus faecalis): 25 µg/mL
MIC (Candida albicans): > 75 µg/mL
MIC (Aspergillus niger): > 75 µg/mL
MIC (Salmonella typhimurium): > 75 µg/mL
MIC (Streptococcus bovis): > 75 µg/mL
MIC (Clostridium perfringens): 3.1 µg/mL
MIC (Mucor miehei): > 75 µg/mL
MIC (Sarcina lutea): 1.5 µg/mL

From patent publication US4613503A, “Antibiotic A26201-1 and antibiotic A26201-2 produced by a novel strain of actinoplanes” (The Dow Chemical Company, priority 1984, dated 1986)
